Measured values taken from patent EP4603105A1, “PHARMACEUTICAL COMPOSITION CONTAINING CYCLIC COMPOUND HAVING SELECTIVE KRAS INHIBITORY EFFECT AGAINST HRAS AND NRAS” (CHUGAI SEIYAKU KABUSHIKI KAISHA, priority 2022, dated 2024).

Columns and labels:
[1] = molecular target: GDP-bound KRAS wild-type protein (Homo sapiens, UniProt P01116); assay: Binding to KRAS by surface plasmon resonance (SPR), dissociation constant KD; conditions: 1:1 binding model
Outline: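 SPR, 30°C: Avi-biotin RAS·GDP captured via Biotin CAPture (~100–300 RU); running buffer HBS pH 7.4, 1 mM DTT, 10 mM MgCl2, 0.01% Tween 20, 10 µM GDP, 4% DMSO. Single-cycle kinetics, 100 µL/min, 75 s injections; 1:1 model → KD.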

[2] = molecular target: GDP-bound NRAS wild-type protein (Homo sapiens, UniProt P01111); assay: Binding to NRAS by surface plasmon resonance (SPR), KD and KD ratio to KRAS; conditions: ratio of KD for GDP-bound NRAS wild-type protein to KD for KRAS
Chain of GDP-bound NRAS wild-type protein (P01111 whole entry): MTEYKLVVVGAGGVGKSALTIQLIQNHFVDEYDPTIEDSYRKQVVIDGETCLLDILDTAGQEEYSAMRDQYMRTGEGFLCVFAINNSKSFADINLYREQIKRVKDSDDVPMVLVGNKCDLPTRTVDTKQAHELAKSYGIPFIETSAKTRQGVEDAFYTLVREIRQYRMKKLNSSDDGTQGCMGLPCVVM
Outline: (§1)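 Captured GDP-RAS (~100–300 RU) was exposed to increasing compound concentrations, 75 s per step, in running buffer with 10 µM GDP, 10 mM MgCl2 and 4% DMSO at pH 7.4.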

HRAS wild-type protein = HRAS wild-type protein (Homo sapiens, UniProt P01112); assay: Binding to HRAS by surface plasmon resonance (SPR), KD and KD ratio to KRAS; conditions: ratio of KD for HRAS wild-type protein to KD for KRAS
Chain of HRAS wild-type protein (P01112 whole entry): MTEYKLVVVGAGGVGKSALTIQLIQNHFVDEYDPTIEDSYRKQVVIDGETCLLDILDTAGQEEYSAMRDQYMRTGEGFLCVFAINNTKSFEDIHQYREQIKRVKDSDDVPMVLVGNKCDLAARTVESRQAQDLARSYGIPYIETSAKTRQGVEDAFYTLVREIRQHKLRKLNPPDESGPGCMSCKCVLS
Outline: as §1

[3] = system: human lung cancer strain NCI-H441; type: cell-based
Outline: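 Step one: dispense the test compound in serial DMSO dilutions. Step three: add the reagent and measure […].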

Chain of GDP-bound KRAS wild-type protein (P01116 1-188 isoform P01116-2): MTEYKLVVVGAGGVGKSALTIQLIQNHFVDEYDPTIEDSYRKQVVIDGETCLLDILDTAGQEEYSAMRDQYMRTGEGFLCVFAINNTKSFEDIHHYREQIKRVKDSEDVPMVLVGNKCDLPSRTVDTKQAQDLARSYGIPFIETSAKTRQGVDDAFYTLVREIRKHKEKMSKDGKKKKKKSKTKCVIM

SMILES | Kd [1] | NRAS /KRAS [2] | HRAS /KRAS (HRAS wild-type protein) | IC50 [3]
CCO[C@@H]1C[C@H]2C(=O)NC3(CC(C)(C)C3)C(=O)N(C)[C@@H](C3CCCC3)C(=O)N(C)[C@H](C(=O)N(C)C)CC(=O)N(C)[C@@H]([C@H](C)OC)C(=O)N[C@@H]([C@@H](C)CC)C(=O)N(C3CC3)CC(=O)N(C)[C@H]3C/C=C\CCN(C3=O)[C@@H](Cc3ccc(C(F)(F)F)cc3)C(=O)N(C)CC(=O)N[C@@H](CCc3ccc(C(F)(F)F)c(Cl)c3)C(=O)N2C1 [PP3177] | 0.49 nM | A (a compound having 10 or more and less than 20 is denoted as A) | A (a compound having 10 or more and less than 20 is denoted as A) | 21.6 nM
CCO[C@@H]1C[C@H]2C(=O)NC3(CC(C)(C)C3)C(=O)N(C)[C@@H](C3CCCC3)C(=O)N(C)[C@H](C(=O)N(C)CC)CC(=O)N(C)[C@@H]([C@@H](C)OC)C(=O)N[C@@H]([C@@H](C)CC)C(=O)N(C)CC(=O)N(C)[C@H]3C/C=C\CCN(C3=O)[C@@H](Cc3ccc(C)cc3)C(=O)N(C)CC(=O)N[C@@H](CCc3cc(F)c(C(F)(F)F)c(F)c3)C(=O)N2C1 [PP3178] | 0.092 nM | A (a compound having 10 or more and less than 20 is denoted as A) | A (a compound having 10 or more and less than 20 is denoted as A) | 11.6 nM
CCO[C@@H]1C[C@H]2C(=O)NC3(CC(C)(C)C3)C(=O)N(C)[C@@H](C3CCCC3)C(=O)N(C)[C@H](C(=O)N(C)C)CC(=O)N(C)[C@@H]([C@H](C)OC)C(=O)N[C@@H]([C@@H](C)CC)C(=O)N3CCC[C@H]3C(=O)N(C)[C@H]3C/C=C\CCN(C3=O)[C@@H](Cc3ccc(C(F)(F)F)cc3)C(=O)N(C)CC(=O)N[C@@H](CCc3ccc(C(F)(F)F)c(OC)c3)C(=O)N2C1 [PP3179] | 0.77 nM | A (a compound having 10 or more and less than 20 is denoted as A) | A (a compound having 10 or more and less than 20 is denoted as A) | 70.9 nM
CCO[C@@H]1C[C@H]2C(=O)NC3(CC(C)(C)C3)C(=O)N(C)[C@@H](C3CCCC3)C(=O)N(C)[C@H](C(=O)N(C)CC)CC(=O)N(C)[C@@H]([C@@H](C)OC)C(=O)N[C@@H]([C@@H](C)CC)C(=O)N(C)CC(=O)N(C)[C@H]3C/C=C\CCN(C3=O)[C@@H](Cc3ccc(C)cc3)C(=O)N(C)CC(=O)N[C@@H](CCc3ccc(C(F)(F)F)c(Cl)c3)C(=O)N2C1 [PP3180] | 0.37 nM | B (a compound having 3 or more and less than 10 is denoted as B) | B (a compound having 3 or more and less than 10 is denoted as B) | 13.3 nM
CCO[C@@H]1C[C@H]2C(=O)NC3(CC(C)(C)C3)C(=O)N(C)[C@@H](C3CCCC3)C(=O)N(C)[C@H](C(=O)N(C)C)CC(=O)N(C)[C@@H]([C@H](C)OC)C(=O)N[C@@H]([C@@H](C)CC)C(=O)N3CCC[C@H]3C(=O)N(C)[C@H]3C/C=C\CCN(C3=O)[C@@H](Cc3ccc(C(F)(F)F)cc3)C(=O)N(C)CC(=O)N[C@@H](CCc3cc(F)c(C(F)(F)F)c(F)c3)C(=O)N2C1 [PP3181] | 0.96 nM | A (a compound having 10 or more and less than 20 is denoted as A) | B (a compound having 3 or more and less than 10 is denoted as B) | 51 nM
CCO[C@@H]1C[C@H]2C(=O)NC3(CC(C)(C)C3)C(=O)N(C)[C@@H](C3CCCC3)C(=O)N(C)[C@H](C(=O)N(C)CC)CC(=O)N(C)[C@@H]([C@@H](C)OC)C(=O)N[C@@H]([C@@H](C)CC)C(=O)N(C3CC3)CC(=O)N(C)[C@H]3C/C=C\CCN(C3=O)[C@@H](Cc3ccc(C)cc3)C(=O)N(C)CC(=O)N[C@@H](CCc3ccc(C(F)(F)F)c(OC)c3)C(=O)N2C1 [PP3182] | 0.87 nM | A (a compound having 10 or more and less than 20 is denoted as A) | A (a compound having 10 or more and less than 20 is denoted as A) | 76.6 nM
CCO[C@@H]1C[C@H]2C(=O)NC3(CC(C)(C)C3)C(=O)N(C)[C@@H](C3CCCC3)C(=O)N(C)[C@H](C(=O)N(C)C)CC(=O)N(C)[C@@H]([C@H](C)OC)C(=O)N[C@@H]([C@@H](C)CC)C(=O)N3CCC[C@H]3C(=O)N(C)[C@H]3C/C=C\CCN(C3=O)[C@@H](Cc3ccc(C(F)(F)F)cc3)C(=O)N(C)CC(=O)N[C@@H](CCc3ccc(C(F)(F)F)c(Cl)c3)C(=O)N2C1 [PP3183] | 1.2 nM | B (a compound having 3 or more and less than 10 is denoted as B) | B (a compound having 3 or more and less than 10 is denoted as B) | 63.6 nM
CCO[C@@H]1C[C@H]2C(=O)NC3(CC(C)(C)C3)C(=O)N(C)[C@@H](C3CCCC3)C(=O)N(C)[C@H](C(=O)N(C)C)CC(=O)N(C)[C@@H]([C@H](C)OC)C(=O)N[C@@H]([C@@H](C)CC)C(=O)N(C)CC(=O)N(C)[C@H]3C/C=C\CCN(C3=O)[C@@H](Cc3ccc(C)cc3)C(=O)N(C)CC(=O)N[C@@H](CCc3ccc(C(F)(F)F)c(OC)c3)C(=O)N2C1 [PP3185] | 0.12 nM | A (a compound having 10 or more and less than 20 is denoted as A) | A (a compound having 10 or more and less than 20 is denoted as A) | 16.1 nM
CCO[C@@H]1C[C@H]2C(=O)NC3(CC(C)(C)C3)C(=O)N(C)[C@@H](C3CCCC3)C(=O)N(C)[C@H](C(=O)N(C)C)CC(=O)N(C)[C@@H]([C@H](C)OC)C(=O)N[C@@H]([C@@H](C)CC)C(=O)N(C)CC(=O)N(C)[C@H]3C/C=C\CCN(C3=O)[C@@H](Cc3ccc(C)cc3)C(=O)N(C)CC(=O)N[C@@H](CCc3cc(F)c(C(F)(F)F)c(F)c3)C(=O)N2C1 [PP3187] | 0.082 nM | A (a compound having 10 or more and less than 20 is denoted as A) | A (a compound having 10 or more and less than 20 is denoted as A) | 10.4 nM
CCO[C@@H]1C[C@H]2C(=O)NC3(CC(C)(C)C3)C(=O)N(C)[C@@H](C3CCCC3)C(=O)N(C)[C@H](C(=O)N(C)CC)CC(=O)N(C)[C@@H]([C@@H](C)OC)C(=O)N[C@@H]([C@@H](C)CC)C(=O)N3CCC[C@H]3C(=O)N(C)[C@H]3C/C=C\CCN(C3=O)[C@@H](Cc3ccc(C)cc3)C(=O)N(C)CC(=O)N[C@@H](CCc3ccc(C(F)(F)F)c(OC)c3)C(=O)N2C1 [PP3188] | 0.99 nM | A (a compound having 10 or more and less than 20 is denoted as A) | A (a compound having 10 or more and less than 20 is denoted as A) | 64.7 nM
CCO[C@@H]1C[C@H]2C(=O)NC3(CC(C)(C)C3)C(=O)N(C)[C@@H](C3CCCC3)C(=O)N(C)[C@H](C(=O)N(C)C)CC(=O)N(C)[C@@H]([C@H](C)OC)C(=O)N[C@@H]([C@@H](C)CC)C(=O)N(C)CC(=O)N(C)[C@H]3C/C=C\CCN(C3=O)[C@@H](Cc3ccc(C)cc3)C(=O)N(C)CC(=O)N[C@@H](CCc3ccc(C(F)(F)F)c(Cl)c3)C(=O)N2C1 [PP3189] | 0.12 nM | A (a compound having 10 or more and less than 20 is denoted as A) | A (a compound having 10 or more and less than 20 is denoted as A) | 18.5 nM
CCO[C@@H]1C[C@H]2C(=O)NC3(CC(C)(C)C3)C(=O)N(C)[C@@H](C3CCCC3)C(=O)N(C)[C@H](C(=O)N(C)CC)CC(=O)N(C)[C@@H]([C@@H](C)OC)C(=O)N[C@@H]([C@@H](C)CC)C(=O)N3CCC[C@H]3C(=O)N(C)[C@H]3C/C=C\CCN(C3=O)[C@@H](Cc3ccc(C)cc3)C(=O)N(C)CC(=O)N[C@@H](CCc3cc(F)c(C(F)(F)F)c(F)c3)C(=O)N2C1 [PP3190] | 0.87 nM | A (a compound having 10 or more and less than 20 is denoted as A) | B (a compound having 3 or more and less than 10 is denoted as B) | 29.9 nM
CCO[C@@H]1C[C@H]2C(=O)NC3(CC(C)(C)C3)C(=O)N(C)[C@@H](C3CCCC3)C(=O)N(C)[C@H](C(=O)N(C)C)CC(=O)N(C)[C@@H]([C@H](C)OC)C(=O)N[C@@H]([C@@H](C)CC)C(=O)N(C3CC3)CC(=O)N(C)[C@H]3C/C=C\CCN(C3=O)[C@@H](Cc3ccc(C)cc3)C(=O)N(C)CC(=O)N[C@@H](CCc3ccc(C(F)(F)F)c(OC)c3)C(=O)N2C1 [PP3191] | 0.49 nM | A (a compound having 10 or more and less than 20 is denoted as A) | A (a compound having 10 or more and less than 20 is denoted as A) | 38.9 nM
CCO[C@@H]1C[C@H]2C(=O)NC3(CC(C)(C)C3)C(=O)N(C)[C@@H](C3CCCC3)C(=O)N(C)[C@H](C(=O)N(C)CC)CC(=O)N(C)[C@@H]([C@@H](C)OC)C(=O)N[C@@H]([C@@H](C)CC)C(=O)N3CCC[C@H]3C(=O)N(C)[C@H]3C/C=C\CCN(C3=O)[C@@H](Cc3ccc(C)cc3)C(=O)N(C)CC(=O)N[C@@H](CCc3ccc(C(F)(F)F)c(Cl)c3)C(=O)N2C1 [PP3192] | 0.96 nM | A (a compound having 10 or more and less than 20 is denoted as A) | A (a compound having 10 or more and less than 20 is denoted as A) | 41.3 nM
